Calls of active or inactive are those of the source. No cut-off for these calls is given here.
Tests used:
[1] = Cytotoxicity against human L02 cells assessed as cell viability at 50 uM incubated for 24 hrs by MTT assay; type: cell-based; conditions: read-out: Activity
[2] = Cytotoxicity against human HepG2 cells assessed as cell viability at 50 uM incubated for 24 hrs by MTT assay; type: cell-based; conditions: read-out: Activity
[3] = biological target: Acetylcholinesterase (Homo sapiens, UniProt P22303); experiment: Inhibition of human AChE using acetylthiocholine iodide as substrate at 20 uM preincubated with enzyme for 5 mins followed by substrate addition and measured after 5 mins by Ellman's method; conditions: time 10.0 min
[4] = Antioxidant activity assessed as DPPH radical scavenging activity at 100 uM incubated for 2 hrs by microplate reader method; type: functional
[5] = biological target: Acetylcholinesterase (Electrophorus electricus) (UniProt O42275); experiment: Inhibition of electric eel AChE using acetylthiocholine iodide as substrate at 20 uM preincubated with enzyme for 20 mins followed by substrate addition and measured after 20 mins by Ellman's method; conditions: time 40.0 min
[6] = n-Octanol/PBS partition coefficient, logP of the compound incubated for 48 hrs at pH 7.4 by shake flask method; type: physicochemical
[7] = Permeability of the compound at 100 ug/ml incubated for 18 hrs by PAMPA; type: ADME; conditions: dose 100 µg/ml, read-out: permeability
[8] = system: PC-12; experiment: Neuroprotective activity against H2O2-induced cytotoxicity in rat PC-12 cells assessed as increase in cell viability pretreated for 3 hrs followed by H2O2 stimulation and measured after 24 hrs by MTT assay; type: functional, cell-based; conditions: time 27.0 hrs
[9] = system: PC-12; experiment: Neuroprotective activity against H2O2-induced cytotoxicity in rat PC-12 cells assessed as cell viability at 25 uM pretreated for 3 hrs followed by H2O2 stimulation and measured after 24 hrs by MTT assay (reference value: 38.7%); type: functional; conditions: time 27 hrs, read-out: Activity
[10] = Acute toxicity in ICR mouse assessed as animal death at 1 g/kg, ig measured for 7 days; conditions: in vivo, po, 1000 mg/kg, 168 h, time 7 day
[11] = Acute toxicity in ICR mouse assessed as behavioral changes at 1 g/kg, ig measured for 7 days; conditions: in vivo, po, 1000 mg/kg, 168 h, time 7 day
[12] = Acute toxicity in ICR mouse assessed as effect on body weight at 1 g/kg, ig measured for 14 days; conditions: in vivo, po, 1000 mg/kg, 336 h, time 14 day
[13] = Hepatotoxicity in ICR mouse assessed as effect on ALT level in serum at 30 mg/kg, ig measured after 36 hrs; type: toxicity, organism-based; conditions: in vivo, po
[14] = Hepatotoxicity in ICR mouse assessed as effect on AST level in serum at 30 mg/kg, ig measured after 36 hrs; type: toxicity, organism-based; conditions: in vivo, po
[15] = Hepatotoxicity in ICR mouse assessed as pericentral necrosis in liver at 30 mg/kg, ig measured after 36 hrs by immunohistochemical staining based analysis; type: toxicity, organism-based; conditions: in vivo, po
[16] = system: Mus musculus; experiment: Anti-alzheimer activity against scopolamine-induced cognitive dysfunction mouse model assessed as reduction in escape time latency at 20 mg/kg, ip measured after 60 mins by Morris water maze test; type: functional, organism-based
[17] = biological target: T1, Cholinesterase (Equus caballus, UniProt P81908); experiment: Pseudo-irreversible inhibition of equine serum BuChE assessed as binding affinity in an equilibrium state using butyrylthiocholine iodide as substrate preincubated with enzyme for 60 mins prior to substrate addition; type: cell-free
[18] = biological target: Cholinesterase (Equus caballus) (UniProt P81908); experiment: Pseudo-irreversible inhibition of equine serum BuChE assessed as carbamolyation-rate using butyrylthiocholine iodide as substrate preincubated with enzyme for 60 mins prior to substrate addition; type: cell-free
[19] = biological target: Cholinesterase (Equus caballus) (UniProt P81908); experiment: Pseudo-irreversible inhibition of equine serum BuChE assessed as overall carbamolyation-rate using butyrylthiocholine iodide as substrate preincubated with enzyme for 60 mins prior to substrate addition; type: cell-free
[20] = biological target: Cholinesterase (Equus caballus) (UniProt P81908); experiment: Pseudo-irreversible inhibition of equine serum BuChE assessed as decarbamolyation-rate using butyrylthiocholine iodide as substrate preincubated with enzyme for 60 mins prior to substrate addition; type: cell-free
[21] = Hepatotoxicity in ICR mouse assessed as distinct fatty degeneration of hepatocytes of the surrounding intermediate and peripheral zones in liver at 30 mg/kg, ig measured after 36 hrs by immunohistochemical staining based analysis; type: toxicity, organism-based; conditions: in vivo, po
[22] = system: Mus musculus; experiment: Anti-alzheimer activity against scopolamine-induced cognitive dysfunction mouse model assessed as increase in number of platform crossing at 20 mg/kg, ip measured after 60 mins by Morris water maze test; type: functional, organism-based
[23] = system: Mus musculus; experiment: Anti-alzheimer activity against scopolamine-induced cognitive dysfunction mouse model assessed as increase in swimming time in the target quadrant crossing at 20 mg/kg, ip measured after 60 mins by Morris water maze test; type: functional, organism-based
[24] = system: Mus musculus; experiment: Anti-alzheimer activity against oligomerized-amyloid beta (1 to 42) peptide-induced cognitive dysfunction ICR mouse model assessed as reduction in escape latency time at 5 mg/kg, po administered from day 3 to 14 by Morris water maze test; type: functional, organism-based; conditions: time 12.0 day
[25] = system: Mus musculus; experiment: Anti-alzheimer activity against oligomerized-amyloid beta (1 to 42) peptide-induced cognitive dysfunction ICR mouse model assessed as simplification of trajectories to the platform at 5 mg/kg, po administered from day 3 to 14 by Morris water maze test; type: functional, organism-based; conditions: time 12.0 day
[26] = system: Mus musculus; experiment: Anti-alzheimer activity against oligomerized-amyloid beta (1 to 42) peptide-induced cognitive dysfunction ICR mouse model assessed as improvement in alteration performance at 5 mg/kg, po administered from day 3 to 14 by […]; type: functional, organism-based; conditions: time 12.0 day
[27] = system: Mus musculus; experiment: Anti-alzheimer activity against oligomerized-amyloid beta (1 to 42) peptide-induced cognitive dysfunction ICR mouse model assessed as reduction in amyloid beta (1 to 42) peptide level in brain at 5 mg/kg, po administered from day 3 to 14 by ELISA; type: functional; conditions: 288 h, time 12 day
[28] = system: Mus musculus; experiment: Anti-alzheimer activity against oligomerized-amyloid beta (1 to 42) peptide-induced cognitive dysfunction ICR mouse model assessed as increase in neuronal density at CA1 region of hippocampus at 5 mg/kg, po administered from day 3 to 14 by Hematoxylin-Eosin staining based microscopic analysis; type: functional, organism-based; conditions: time 12.0 day
[29] = biological target: Cholinesterase (Homo sapiens, UniProt P06276)
Description: Inhibition of human serum BuChE using butyrylthiocholine iodide as substrate preincubated with enzyme for 5 mins followed by substrate addition and measured after 5 mins by Ellman's method

[30] = biological target: T1, Cholinesterase
Description: Inhibition of equine serum BuChE using butyrylthiocholine iodide as substrate preincubated with enzyme for 20 mins followed by substrate addition and measured after 20 mins by Ellman's method

Chain of Cholinesterase (Equus caballus) (P81908 whole entry): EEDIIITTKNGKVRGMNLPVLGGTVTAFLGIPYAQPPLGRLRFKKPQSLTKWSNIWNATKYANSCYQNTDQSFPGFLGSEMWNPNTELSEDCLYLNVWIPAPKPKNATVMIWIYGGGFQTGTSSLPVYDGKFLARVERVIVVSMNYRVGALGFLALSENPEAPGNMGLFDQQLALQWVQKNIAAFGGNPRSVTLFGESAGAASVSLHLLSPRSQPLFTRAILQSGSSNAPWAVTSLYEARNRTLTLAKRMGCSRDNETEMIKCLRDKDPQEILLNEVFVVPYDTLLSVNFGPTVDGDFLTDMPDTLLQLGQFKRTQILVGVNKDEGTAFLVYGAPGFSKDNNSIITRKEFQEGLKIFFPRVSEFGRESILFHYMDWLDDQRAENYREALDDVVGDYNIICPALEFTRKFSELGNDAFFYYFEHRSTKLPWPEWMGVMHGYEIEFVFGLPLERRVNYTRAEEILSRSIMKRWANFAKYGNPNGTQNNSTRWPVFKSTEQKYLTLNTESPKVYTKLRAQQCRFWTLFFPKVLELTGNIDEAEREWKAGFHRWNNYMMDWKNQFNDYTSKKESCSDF
T1 sequence (P81908 whole entry): as above
Chain of Cholinesterase (Homo sapiens, UniProt P06276) (P06276 whole entry): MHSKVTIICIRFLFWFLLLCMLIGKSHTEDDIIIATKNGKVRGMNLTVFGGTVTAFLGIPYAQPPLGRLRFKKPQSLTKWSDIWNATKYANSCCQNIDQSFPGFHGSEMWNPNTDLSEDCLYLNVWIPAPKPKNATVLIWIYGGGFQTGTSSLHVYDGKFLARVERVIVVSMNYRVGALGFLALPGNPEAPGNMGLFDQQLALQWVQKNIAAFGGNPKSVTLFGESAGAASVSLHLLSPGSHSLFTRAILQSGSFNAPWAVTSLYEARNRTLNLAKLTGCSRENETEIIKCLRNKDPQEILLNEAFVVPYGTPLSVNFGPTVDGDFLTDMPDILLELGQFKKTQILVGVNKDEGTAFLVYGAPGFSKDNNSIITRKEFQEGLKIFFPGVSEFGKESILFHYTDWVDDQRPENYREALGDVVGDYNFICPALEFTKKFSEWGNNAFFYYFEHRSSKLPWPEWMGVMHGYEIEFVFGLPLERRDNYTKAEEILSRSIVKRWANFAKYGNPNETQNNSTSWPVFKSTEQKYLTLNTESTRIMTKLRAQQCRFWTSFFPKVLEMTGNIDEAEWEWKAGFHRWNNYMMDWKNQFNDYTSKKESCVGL
Chain of Acetylcholinesterase (P22303 whole entry): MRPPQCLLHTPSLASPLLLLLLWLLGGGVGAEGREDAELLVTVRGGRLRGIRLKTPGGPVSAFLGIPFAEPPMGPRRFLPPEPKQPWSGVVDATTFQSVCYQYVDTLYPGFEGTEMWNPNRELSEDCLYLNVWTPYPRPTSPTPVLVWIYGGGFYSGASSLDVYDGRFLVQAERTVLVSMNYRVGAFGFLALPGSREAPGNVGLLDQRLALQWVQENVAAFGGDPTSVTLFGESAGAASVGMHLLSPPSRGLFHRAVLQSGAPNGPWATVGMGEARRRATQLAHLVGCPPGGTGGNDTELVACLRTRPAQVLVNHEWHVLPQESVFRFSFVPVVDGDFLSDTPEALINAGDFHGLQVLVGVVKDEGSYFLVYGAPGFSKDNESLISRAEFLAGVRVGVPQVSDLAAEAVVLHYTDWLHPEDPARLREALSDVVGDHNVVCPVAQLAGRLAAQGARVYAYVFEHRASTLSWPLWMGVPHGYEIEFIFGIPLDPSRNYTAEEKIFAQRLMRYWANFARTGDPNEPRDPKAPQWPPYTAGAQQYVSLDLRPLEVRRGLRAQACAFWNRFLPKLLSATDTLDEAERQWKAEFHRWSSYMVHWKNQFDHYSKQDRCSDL
Chain of Acetylcholinesterase (Electrophorus electricus) (O42275 24-633 limits assumed): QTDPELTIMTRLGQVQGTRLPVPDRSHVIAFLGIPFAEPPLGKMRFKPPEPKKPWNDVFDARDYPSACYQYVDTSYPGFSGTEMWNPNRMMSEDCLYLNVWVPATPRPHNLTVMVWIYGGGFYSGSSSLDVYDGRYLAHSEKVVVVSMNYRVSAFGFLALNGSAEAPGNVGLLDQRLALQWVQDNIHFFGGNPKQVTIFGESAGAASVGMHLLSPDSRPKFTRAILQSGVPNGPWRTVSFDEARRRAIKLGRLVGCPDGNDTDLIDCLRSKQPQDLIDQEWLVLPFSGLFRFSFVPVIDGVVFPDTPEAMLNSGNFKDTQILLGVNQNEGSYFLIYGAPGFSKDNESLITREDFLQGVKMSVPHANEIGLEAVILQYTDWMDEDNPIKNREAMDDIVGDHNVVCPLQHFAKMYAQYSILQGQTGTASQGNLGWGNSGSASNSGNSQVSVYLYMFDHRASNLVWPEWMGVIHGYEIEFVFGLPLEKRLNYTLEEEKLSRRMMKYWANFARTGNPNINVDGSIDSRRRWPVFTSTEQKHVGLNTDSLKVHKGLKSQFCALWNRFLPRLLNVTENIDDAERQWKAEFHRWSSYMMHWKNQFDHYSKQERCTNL

Question: Which results are given for `C=C(C)[C@@H]1CCC(C)=C[C@H]1c1c(O)cc(CCCCC)cc1OC(=O)N(C)Cc1ccc(Cl)cc1`?
Answer: viability at 24 h, 50 µM [1]: 96%; viability at 24 h, 50 µM [2]: 88.3%; inhibition [3]: 26.3%; inhibition [4]: 27.1%; inhibition [5]: 21.4%; logD at 48 h [6]: 2.38; Papp at 18 h, 100 ug/ml [7]: 12.9 ×10⁻⁶ cm/s; Activity [8]: Dose-Dependent Effect; viability at 25 µM [9]: 41.9%; Activity [10]: Non-Toxic; Activity [11]: Non-Toxic; Activity [12]: Non-Toxic; Activity [13]: Non-Toxic; Activity [14]: Non-Toxic; Activity [15]: Non-Toxic; Activity [16]: Active; Kd [17]: 13 nM; K [18]: 0.26 min⁻¹; K [19]: 20.3 µM/min; K [20]: 5.2 10^3/min; Activity [21]: Non-Toxic; Activity [22]: Active; Activity [23]: Active; Activity [24]: Active; Activity [25]: Active; Activity [26]: Active; inhibition in vivo at 5 mg/kg [27]: 31.6%; Activity [28]: Active; IC50 [29]: 1770 nM; IC50 [30]: 5.3 nM

From ChEMBL document CHEMBL4831510, “Novel cannabidiol-carbamate hybrids as selective BuChE inhibitors: Docking-based fragment reassembly for the development of potential therapeutic agents against Alzheimer's disease” (Eur J Med Chem, 2021)
